Laboratory results reported in PubChem BioAssay (NCI).
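Test compounds were applied to cells in 96-well plates for 48 hours at 5 doses. TGI is the concentration that stops growth completely.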 Where a SMILES comes first, the peptide text is derived from it. [ ]: non-standard residue; d: D form. The star is where a group is joined. NMeAc5c = CNC1(C(=O)O)CCCC1; Boc = CC(C)(C)OC(=O)*; OBn = c1ccc(CO*)cc1

Tests used:
Experiment in all cases: DTP human tumour cell line panel, 48 h
HT29 colon = test system: HT29 colon
K-562 leukemia = test system: K-562 leukemia
LOX IMVI melanoma = test system: LOX IMVI melanoma
M14 melanoma = test system: M14 melanoma
MALME-3M melanoma = test system: MALME-3M melanoma
MDA-N = test system: MDA-N
NCI-H460 lung = test system: NCI-H460 lung
OVCAR-4 ovarian = test system: OVCAR-4 ovarian
OVCAR-5 ovarian = test system: OVCAR-5 ovarian
TK-10 renal = test system: TK-10 renal
UO-31 renal = test system: UO-31 renal
NCI-H23 lung = test system: NCI-H23 lung

Structure (SMILES) | TGI (HT29 colon) | TGI (K-562 leukemia) | TGI (LOX IMVI melanoma) | TGI (M14 melanoma) | TGI (MALME-3M melanoma) | TGI (MDA-N) | TGI (NCI-H460 lung) | TGI (OVCAR-4 ovarian) | TGI (OVCAR-5 ovarian) | TGI (TK-10 renal) | TGI (UO-31 renal) | TGI (NCI-H23 lung)
COc1ccc(N/N=C2\CCOc3ccc(C)cc3C2=O)cc1 | 61.1 µM | > 100 µM | 30.9 µM | > 100 µM | 38.7 µM | 22.3 µM | 53.7 µM | > 100 µM | > 100 µM | > 100 µM | > 100 µM | –
CC(C)(C)N1CSC(=S)N(Cc2ccco2)C1 | 13.8 µM | 13.3 µM | 14.6 µM | 11.8 µM | 16.6 µM | 16.5 µM | 22.5 µM | 26.7 µM | 11.7 µM | 11.6 µM | 6.14 µM | 11.1 µM
CC(=O)O[C@@H]1[C@H](C(C)C)[C@@H](OC(C)=O)C/C(C)=C/CC[C@]2(C)O[C@@H]12 | > 100 µM | > 100 µM | > 100 µM | > 100 µM | > 100 µM | > 100 µM | > 100 µM | > 100 µM | > 100 µM | > 100 µM | > 100 µM | > 100 µM
N#CCCC1C(C#N)C2(Cl)CC1(Cl)C(Cl)=C2Cl (stereo not given) | > 10 µM | > 10 µM | > 10 µM | > 10 µM | > 10 µM | > 10 µM | > 10 µM | > 10 µM | > 10 µM | > 10 µM | > 10 µM | > 10 µM
C=CCN1C[C@H](C)N([C@H](c2ccc(C(=O)NC(CC)CC)cc2)c2cccc(OC)c2)C[C@H]1C | 61.1 µM | > 100 µM | 58.6 µM | 34.4 µM | 43.5 µM | > 100 µM | > 100 µM | > 100 µM | > 100 µM | > 100 µM | 52.7 µM | > 100 µM
COC(=O)c1c(C)cccc1C1CN=NC12Cc1ccc(C)cc1C2=O (stereo not given) | > 100 µM | > 100 µM | > 100 µM | > 100 µM | > 100 µM | > 100 µM | 28.2 µM | > 100 µM | > 100 µM | > 100 µM | > 100 µM | > 100 µM
CCOC(=O)C1(C/C=C/CBr)Cc2ccccc2C1=O (stereo not given) | 11.8 µM | 4.84 µM | 3.23 µM | 11.6 µM | 7.43 µM | 6.37 µM | 4.21 µM | 6.02 µM | 20.1 µM | 9.15 µM | 4.83 µM | 4.47 µM
CC(=O)OC1CC(OC2C(O)CC(OC3C(O)CC(OC4CCC5(C)C(CCC6C5CC(O)C5(C)C(C7=CC(=O)OC7)CCC65O)C4)OC3C)OC2C)OC(C)C1OC1OC(CO)C(O)C(O)C1O (stereo not given) | 0.252 µM | > 100 µM | 0.161 µM | 0.343 µM | 0.249 µM | 0.526 µM | 0.0678 µM | 0.207 µM | 0.222 µM | 0.235 µM | 0.179 µM | 0.0744 µM
CC(=O)NC(Cc1ccc(O)cc1)C(=O)O (stereo not given) | > 100 µM | > 100 µM | > 100 µM | > 100 µM | > 100 µM | > 100 µM | > 100 µM | > 100 µM | > 100 µM | > 100 µM | > 100 µM | > 100 µM
O=C1C=CC(=O)c2c1ccc1c3ccccc3n(CCCCCCCCCCCCn3c4ccccc4c4ccc5c(c43)C(=O)C=CC5=O)c21 | > 100 µM | > 100 µM | > 100 µM | > 100 µM | > 100 µM | > 100 µM | > 100 µM | > 100 µM | > 100 µM | > 100 µM | > 100 µM | > 100 µM
N#Cc1c(N2CCCC2)ncn(-c2ccccc2)c1=O | > 100 µM | > 100 µM | > 100 µM | > 100 µM | > 100 µM | > 100 µM | > 100 µM | > 100 µM | > 100 µM | > 100 µM | > 100 µM | > 100 µM
CCCCCCc1cc2cc(-c3csc(CC#N)n3)c(=O)oc2cc1O | > 100 µM | > 100 µM | > 100 µM | > 100 µM | > 100 µM | > 100 µM | > 100 µM | 12.9 µM | > 100 µM | > 100 µM | > 78.6 µM | > 100 µM
COc1ccc2cc(NC(=O)N/N=C\c3ccc([N+](=O)[O-])cc3)ccc2c1 | > 100 µM | > 100 µM | > 100 µM | > 100 µM | > 100 µM | > 100 µM | > 100 µM | 5.74 µM | > 100 µM | – | 46.4 µM | 77.9 µM
Nn1c(-c2ccccc2)nn(C(=O)c2ccccc2)c1=O | > 100 µM | > 100 µM | > 100 µM | > 100 µM | > 100 µM | > 100 µM | > 100 µM | > 100 µM | > 100 µM | > 100 µM | > 100 µM | > 100 µM
CN1CCN(C2=NCCO2)CC1 | > 100 µM | > 100 µM | > 100 µM | > 100 µM | > 100 µM | > 100 µM | > 100 µM | > 100 µM | > 100 µM | > 100 µM | > 100 µM | > 100 µM
COc1cc(C2c3cc4c(cc3OC(N3CCOCC3)C2C)OCO4)ccc1O (stereo not given) | > 100 µM | 33 µM | > 58.9 µM | > 63.5 µM | > 100 µM | 4.41 µM | 55.5 µM | > 100 µM | > 100 µM | > 100 µM | > 92.8 µM | > 95.7 µM
COC(=O)C1SC(SC)=NC12c1ccccc1Nc1ccccc12 (stereo not given) | > 100 µM | > 100 µM | 32.2 µM | 40.1 µM | 65.1 µM | 70.6 µM | 56.1 µM | > 100 µM | > 100 µM | > 100 µM | > 100 µM | 38.9 µM
COc1cc(Br)cc2cc(-c3cn4ccsc4n3)c(=O)oc12 | > 100 µM | > 100 µM | > 100 µM | > 100 µM | > 100 µM | 42.2 µM | > 100 µM | > 100 µM | > 100 µM | > 100 µM | > 100 µM | > 100 µM
CN1CCc2cc(N)cc3c2C1Cc1ccc(O)c(O)c1-3 (stereo not given) | > 100 µM | 85.3 µM | 35 µM | > 100 µM | 88.2 µM | > 100 µM | > 100 µM | > 100 µM | > 100 µM | > 100 µM | 95.9 µM | > 100 µM
C[C@]12CCC(O)CC1=CC[C@@H]1[C@@H]2CC[C@]2(C)C(=O)[C@H](n3ccnc3)C[C@@H]12 (stereo not given in full) | > 100 µM | > 100 µM | > 100 µM | > 100 µM | > 100 µM | > 100 µM | > 100 µM | > 100 µM | > 100 µM | > 100 µM | > 100 µM | > 100 µM
Nc1nc(SCCc2ccccc2)c2[nH]cnc2n1 | > 100 µM | > 100 µM | > 100 µM | > 100 µM | > 100 µM | > 100 µM | > 100 µM | > 100 µM | > 100 µM | 67.9 µM | > 100 µM | > 100 µM
Cc1ccccc1C(=O)N1CCc2c([nH]c3ccccc23)C1 | 44.7 µM | 62.5 µM | 50.2 µM | 45.4 µM | 81.5 µM | 43.9 µM | 53.4 µM | 74.9 µM | 76.3 µM | 80.2 µM | > 100 µM | 50.9 µM
CCOC(=O)C(SCCO)C(C(=O)OCC)n1cnc2c(=O)[nH]c(NC(C)=O)nc21 (stereo not given) | > 100 µM | > 100 µM | > 100 µM | > 100 µM | > 100 µM | > 100 µM | > 100 µM | > 100 µM | > 100 µM | > 100 µM | > 100 µM | > 100 µM
CN(C(=O)C(Cc1ccccc1)NC(=O)OC(C)(C)C)C1(C(=O)NC(Cc2ccccc2)C(=O)OCc2ccccc2)CCCC1 (stereo not drawn) (Boc-Phe-[NMeAc5c]-Phe-OBn; configuration not given here) | 56.7 µM | 97 µM | > 100 µM | 45.9 µM | > 100 µM | 65.4 µM | 59.8 µM | > 100 µM | > 100 µM | > 100 µM | 82.6 µM | > 100 µM
C[C@@H](NC(=O)[C@@H]1C[C@]1(C)COC(=O)c1cc([N+](=O)[O-])cc([N+](=O)[O-])c1)c1cccc2ccccc12 | > 100 µM | > 100 µM | > 100 µM | > 100 µM | 51 µM | > 100 µM | > 100 µM | > 100 µM | > 100 µM | > 100 µM | > 100 µM | > 100 µM
COc1ccc(C2CC(c3c(O)ccc4ccccc34)=NN2C(C)=O)cc1OC (stereo not given) | > 100 µM | 43.8 µM | – | 69.4 µM | 92.1 µM | 56.4 µM | 93.5 µM | > 100 µM | > 100 µM | > 100 µM | 83.3 µM | 79 µM
Clc1ccccc1C(SCc1ccccc1)SCc1ccccc1 | > 100 µM | > 100 µM | – | > 100 µM | > 100 µM | > 100 µM | > 100 µM | > 100 µM | > 100 µM | > 100 µM | > 100 µM | > 100 µM
